Source: patent US10167326B2, “Alpha-fetoprotein “ring and tail” peptides” (ALBANY MEDICAL COLLEGE, priority 2010, dated 2019)
Entries after “also recorded” stand apart in the source; their conditions may differ. Non-standard residues stand in square brackets, D forms with d. Residues, ends and D or L forms follow the SMILES beside them. Hyp = O=C(O)[C@@H]1C[C@@H](O)CN1

Key:
[1] = tested on: estrogen receptor phosphorylation at serine-118; settings: cited from earlier work
p53 = settings: cited from earlier work
estrogen receptor = molecular target: T1, estrogen receptor (Homo sapiens, UniProt P03372); settings: cited from earlier work
T1 sequence (P03372 1-595): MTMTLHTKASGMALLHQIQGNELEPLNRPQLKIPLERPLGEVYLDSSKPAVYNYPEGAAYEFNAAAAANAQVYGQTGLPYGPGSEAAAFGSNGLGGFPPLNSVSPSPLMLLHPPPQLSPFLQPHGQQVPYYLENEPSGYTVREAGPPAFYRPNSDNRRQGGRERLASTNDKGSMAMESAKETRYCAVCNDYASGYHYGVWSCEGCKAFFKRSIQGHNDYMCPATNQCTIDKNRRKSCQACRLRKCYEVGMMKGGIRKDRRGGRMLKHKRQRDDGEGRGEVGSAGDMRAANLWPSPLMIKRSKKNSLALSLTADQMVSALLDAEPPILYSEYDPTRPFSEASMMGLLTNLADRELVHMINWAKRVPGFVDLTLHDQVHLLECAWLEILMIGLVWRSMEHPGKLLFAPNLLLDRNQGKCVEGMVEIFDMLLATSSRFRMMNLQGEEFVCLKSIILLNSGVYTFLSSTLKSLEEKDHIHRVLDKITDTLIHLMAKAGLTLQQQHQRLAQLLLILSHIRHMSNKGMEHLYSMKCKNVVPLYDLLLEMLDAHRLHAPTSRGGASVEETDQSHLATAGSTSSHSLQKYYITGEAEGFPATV

[2] = tested on: T47D human breast cancer cells; assay: T47D cell proliferation assay in the presence of E2; format: cell-based
Experimental: Anticancer activity of the cyclic peptides was also evaluated using the T47D cell proliferation assay. T47D cells were cultured on collagen-IV coated 24-well plates and treated with each of above peptides in the presence of E2. Final peptide concentrations of each peptide were 10^−6 M and final E2 concentration was 1 nM. Values are reported as mean±SEM (n=6) of four independent experiments. […] One-way ANOVA followed by Tukey's multiple comparison test. p≤0.05.
(§1) A ‘tail’ was attached to a nine-amino acid ring and included 1 or 2 amino acids defined as hydrophilic or hydrophobic based on the nature of their side-chains. Tails comprising the following amino acid(s): serine (S), tyrosine (Y), […], glutamic acid (E), phenylalanine-serine (FS) and tyrosine-isoleucine (YI) represent hydrophilic tails and tails comprising the following amino acid(s), phenylalanine (F), isoleucine (I) and phenylalanine-isoleucine (FI) are hydrophobic tails. All peptides were administered at a dose of 1 μg/mouse intraperitoneally or 10 μg/mouse by oral gavage. Values are presented as mean±S.E. (n=5). In culture, T47D cells were treated with each peptide at a concentration of 1 μM. Values are presented as mean±S.E (n=6). […] Wilcoxon Rank Sum Test.
(§2) All peptides were administered at a dose of 1 μg/mouse intraperitoneally or 10 μg/mouse by oral gavage. Values are presented as mean±S.E (n=5). In culture, T47D cells were treated with each peptide at a concentration of 1 μM. Values are presented as mean±S.E (n=6). […] Wilcoxon Rank Sum Test.

[3] = tested on: T47D human breast cancer cells; assay: as above; format: cell-based; settings: different concentrations in vitro (FIG. 7)
[4] = tested on: E2-stimulated immature mouse uterine growth; assay: immature mouse uterine growth assay (inhibition of E2-stimulated uterine growth); format: in vivo
Experimental: Four cyclic peptides of decreasing ring size (Table 1) were synthesized and were assessed for antiestrogenic activity using the immature mouse uterine assay. Negative control mice received saline alone. Positive control mice received E2 alone. AFPep was used as a positive control peptide and cyclic Scr was used as a peptide control. Mice were injected intraperitoneally (i.p.) with each of these peptides at a dose of 1 μg/mouse. One hour later mice received 0.5 ug 17β-estradiol (E2) i.p. Twenty-two hours later uteri were dissected, weighed, and normalized to body weight. The results are reported as mean±S.E (n=5) for four independent experiments.
as §1, §2
To evaluate peptide-induced inhibition by the peptide of the present invention of estrogen-stimulated proliferation of normal tissue, the immature mouse uterine growth assay was utilized. Briefly, 13-15 day-old Swiss/Webster female mice, 6-8 g in body weight, were distributed into treatment groups of 5 mice per group so that each group contained animals of the same range of body weight. The peptide of the invention was injected i.p., s.c., or p.o. into the mice. One hour later, estradiol (E2) or vehicle control for E2 was injected i.p. Twenty-two hours after the second injection, uteri were harvested, trimmed free of mesenteries, and immediately weighed. The uterine weights were normalized to mouse body weights to compensate for differences in body weight among litters of the same age. Experiments employed a minimum of five mice per group and the mean normalized uterine weight±SE for each group was calculated. Percent growth inhibition in a test group was calculated from normalized uterine wet weights as described below.
The ability to inhibit E2-stimulated growth of normal mouse uterus was used as a screening assay for biological activity of AFPep analogs. In general, inhibitory activity ≥20% is considered to be biologically significant. Each analog's inhibitory effect on E2-stimulated growth was compared to AFPep (a positive control) and to PGVGQ (SEQ ID NO: 51)(a negative control). PGVGQ (SEQ ID NO: 51 amino acids 478-482 of AFP) is a portion of the primary structure of AFP near to the anti-cancer active site of AFP and is comprised of amino acids (P, V, and G) that are important components of AFPep.

p21Cip1 = settings: cited from earlier work
c-erb2 = settings: after stimulation by E2 or EGF in MCF-7 cells; cited from earlier work

CC(C)[C@@H]1NC(=O)[C@@H]2C[C@@H](O)CN2C(=O)[C@H]([C@@H](C)O)NC(=O)[C@H](CCCCN)NC(=O)[C@H](CCC(=O)O)NC(=O)[C@H](CC(N)=O)NC(=O)CNC(=O)[C@@H]2C[C@@H](O)CN2C(=O)[C@H](CC(N)=O)NC1=O [AFPep, cyclo[EKTOVNOGN], reference compound] (cyclo(EKT[Hyp]VN[Hyp]GN))
E2-induced estrogen receptor phosphorylation at serine-118 [1]: significantly inhibited | serine-15 phosphorylation on p53 (p53): significantly increased | binding to the E2-binding site of the estrogen receptor (estrogen receptor): does not bind | Inhibition ± S.E, % T47D cell proliferation ([2]; peptide 1 μM, E2-stimulated, mean±S.E (n=6), * p<0.05 vs E2 alone): 51 ± 4* % | anticancer activity of cyclic analogs of different ring size (T47D proliferation inhibition) ([2]; peptide 10^−6 M, E2 1 nM (FIG. 5B)): significantly different from the other analogs; also recorded: significantly better inhibition of E2-stimulated growth in vivo and in vitro than the other analogs | inhibition of E2-stimulated T47D human breast cancer cell growth, concentration response profile [3]: inhibited E2-stimulated T47D cell growth up to a concentration of 10^−6M and then loss its effectiveness at higher concentrations | antiestrogenic activity of cyclic analogs of different ring size (uterine growth inhibition) ([4]; 1 μg/mouse i.p. (FIG. 5A)): significantly better inhibition of E2-stimulated growth in vivo and in vitro than the other analogs | uterine growth inhibition dose response of AFPep combined with antagonist analog ([4]; combination of AFPep and ring and tail antagonist with disrupted pharmacophore and hydrophilic tail (FIG. 11, 12)): restored by addition of the antagonist analog; also recorded: can be overcome by using a combination of AFPep and an analog with a hydrophilic tail; also recorded: sigmoidal dose range curve | inhibition of E2-stimulated uterine growth, dose response profile ([4]; over a number of doses (FIG. 6)): significantly inhibited E2-stimulated uterine growth to a dose of 10 μg and then loses its effectiveness at higher doses | nuclear p21Cip1 activation (p21Cip1): increases | transactivation of c-erb2 leading dephosphorylated ERK1/2 (c-erb2): prevent the transactivation of c-erb2
